According to patent publication US11684067B2, “Generation of peroxyformic acid through polyhydric alcohol formate” (priority 2014, dated 2023):
Several values for one entry are separate records, joined by “and”; a condition that tells them apart may be missing. Equal entries are not always repeated.

Assays:
[1] = Physical properties (hygroscopicity, water solubility) of formate esters prepared; assay type: physicochemical; conditions: hexaformates: at room temperature
pseudomonas = test: Suspension test in cooling tower water samples; assay type: cell-based; conditions: 10 minutes
Procedure: The antimicrobial efficacy of peroxyformic acid generated through the perhydrolysis of glycerol formatted were tested against pseudomonas in cooling tower samples at both 25° C. and 37° C., along with the peroxyacetic acid (POAA) controls, and the results are summarized in Table 6 and 7 below.

[2] = system: Nalidixic acid resistant E. coli O157:H7; test: Reduction of E. coli on raw beef brisket, dip treatment; assay type: cell-based; conditions: 10 minutes dip, ambient, 220 ppm POAA / 180 ppm PFA / 50 ppm LAS per formula (Table 15)
Procedure: Nalidixic acid resistant E. coli O157:H7 was used to evaluate the efficacy in treatment with performic acid composition on raw beef brisket according to the conditions shown in Table 14.
The generation of PFA from the perhydrolysis of glycerol formates, PFA formulations, POAA formations and controls were evaluated as shown in Table 15.

[3] = system: Bacillus subitilisATCC 19659; test: Sporicidal activity of ester PFA versus POAA (Example 23); assay type: cell-based, Bacillus subtilis; conditions: 20°C, dirty
Description: Additional Bacillus pathogens were used to evaluate the micro efficacy of ester PFA generated according to methods of the present invention in comparison to POAA.

[4] = system: Aspergillus brasiliensis ATCC 16404; test: Fungicidal/yeasticidal activity of ester PFA versus POAA (Example 22); assay type: cell-based; conditions: 20°C, dirty
Description: (§1) Canidia and Aspergillus pathogens were used to evaluate the micro efficacy of ester PFA generated according to methods of the present invention in comparison to POAA.

[5] = system: Candida albicans ATCC 10231; test: as above; assay type: cell-based; conditions: 20°C, dirty
Description: as §1

[6] = Laundry disinfection efficacy, EPA protocol on 100% cotton carriers (Table 38); assay type: cell-based; conditions: 42 ppm, pH 7.7, 500 ppm hard water, 40° C., 5 minute exposure, vs water control
Procedure: The microbial efficacy of peroxyformic acid was also tested following the EPA protocol on 100% cotton carriers against a water control. The test conditions were pH 7.7, 500 ppm hard water, 40° C. and 5 minute exposure time. In comparison, the performance of peracetic acid was also tested under the same conditions.

[7] = system: Bacillus subitilisATCC 19659; test: Sporicidal activity of ester PFA versus POAA (Example 21); assay type: cell-based, Bacillus subtilis; conditions: 20°C, dirty
Description: Bacillus pathogens were used to evaluate the micro efficacy of ester PFA generated according to methods of the present invention in comparison to POAA.

[8] = system: Enterococcus hirae ATCC 10541; test: Bactericidal activity of ester PFA versus POAA, EN 1276, dirty conditions; assay type: cell-based; conditions: 20°C
Description: (§2) Additional Staphylococcus, Enterococcus and Pseudomonas pathogens were used to evaluate the micro efficacy of ester PFA generated according to methods of the present invention in comparison to POAA.

[9] = system: Staphylococcus aureus ATCC 6538; test: as above; assay type: cell-based; conditions: 20°C
Description: as §2

[10] = system: Pseudomonas aeruginosa ATCC 15442; test: as above; assay type: cell-based; conditions: 20°C
Description: as §2

[11] = BP Cooling Water pH 8.74, 5 ppm Ester PFA / 6.13 ppm POAA, 25°C
[12] = BP Cooling Water pH 8.74, 5 ppm Ester PFA / 6.13 ppm POAA, 37°C
[13] = BP Cooling Water pH 8.74, 12.3 ppm POAA, 25°C
[14] = BP Cooling Water pH 8.74, 12.3 ppm POAA, 37°C
[15] = Peninsula Cooling Water pH 8.81, 5 ppm Ester PFA / 6.13 ppm POAA, 25°C
[16] = Peninsula Cooling Water pH 8.81, 5 ppm Ester PFA / 6.13 ppm POAA, 37°C
[17] = Peninsula Cooling Water pH 8.81, 12.3 ppm POAA, 25°C
[18] = Peninsula Cooling Water pH 8.81, 12.3 ppm POAA, 37°C
[19] = 300 ppm PFA pH 6.73 / 368 ppm POAA pH 6.88, 5 minutes
[20] = 300 ppm PFA pH 6.73 / 368 ppm POAA pH 6.88, 10 minutes
[21] = 400 ppm PFA pH 6.95 / 490 ppm POAA pH 6.65, 5 minutes
[22] = 400 ppm PFA pH 6.95 / 490 ppm POAA pH 6.65, 10 minutes
[23] = 200 ppm PFA pH 6.15 / 245 ppm POAA pH 6.56, 5 minutes
[24] = 200 ppm PFA pH 6.15 / 245 ppm POAA pH 6.56, 10 minutes
[25] = 200 ppm PFA pH 6.15 / 245 ppm POAA pH 6.56, 15 minutes
[26] = 300 ppm PFA pH 6.21 / 368 ppm POAA pH 6.63, 5 minutes
[27] = 300 ppm PFA pH 6.21 / 368 ppm POAA pH 6.63, 10 minutes
[28] = 300 ppm PFA pH 6.84 / 368 ppm POAA pH 6.73 (molar equivalent), 5 minutes
[29] = 300 ppm PFA pH 6.84 / 368 ppm POAA pH 6.73 (molar equivalent), 10 minutes
[30] = 400 ppm PFA pH 7.19 / 490 ppm POAA pH 6.78 (molar equivalent), 5 minutes
[31] = 400 ppm PFA pH 7.19 / 490 ppm POAA pH 6.78 (molar equivalent), 10 minutes
[32] = 20 ppm PFA pH 6.61 / 24.8 ppm POAA pH 6.73, 5 minutes
[33] = 30 ppm PFA pH 6.74 / 37.6 ppm POAA pH 6.90, 5 minutes
[34] = 50 ppm PFA pH 6.60 / 62.4 ppm POAA pH 6.98, 5 minutes

O=COC[C@@H](OC=O)[C@@H](OC=O)[C@H](OC=O)[C@@H](COC=O)OC=O [Mannitol Hexaformates]
solubility in water of the isolated solid [1]: marginally soluble in water

CC(=O)OO [POAA, peroxyacetic acid, reference compound]
Avg. Log10 Growth (pseudomonas; [11]): 4.10 Log10 | Log10 Reduction (pseudomonas; [11]): 1.57 Log10 | Avg. Log10 Growth (pseudomonas; [12]): 2.84 Log10 | Log10 Reduction (pseudomonas; [12]): 2.26 Log10 | Avg. Log10 Growth (pseudomonas; [13]): 3.26 Log10 | Log10 Reduction (pseudomonas; [13]): 2.41 Log10 | Avg. Log10 Growth (pseudomonas; [14]): 2.73 Log10 | Log10 Reduction (pseudomonas; [14]): 2.37 Log10 | Avg. Log10 Growth (pseudomonas; [15]): 3.81 Log10 | Log10 Reduction (pseudomonas; [15]): 1.37 Log10 | Avg. Log10 Growth (pseudomonas; [16]): 2.76 Log10 | Log10 Reduction (pseudomonas; [16]): 2.34 Log10 | Avg. Log10 Growth (pseudomonas; [17]): 3.30 Log10 | Log10 Reduction (pseudomonas; [17]): 1.88 Log10 | Avg. Log10 Growth (pseudomonas; [18]): 3.20 Log10 | Log10 Reduction (pseudomonas; [18]): 1.90 Log10 | Average Log CFU/cm2 [2]: 2.98 Log CFU/cm2 | Log reduction [2]: 1.06 Log | CFU/cm2 ([2]; single samples): 1.20E+03 CFU/cm2 and 9.00E+02 CFU/cm2 and 8.00E+02 CFU/cm2 | CFU/ml ([2]; single samples): 6.00E+02 CFU/ml and 4.50E+02 CFU/ml and 4.00E+02 CFU/ml | Log CFU/cm2 ([2]; single samples): 3.08 Log CFU/cm2 and 2.95 Log CFU/cm2 and 2.90 Log CFU/cm2 | Average CFU/mL [3, 19]: >3.0E+06 CFU/mL | Log10 Growth [3, 19]: >6.48 Log10 | Log10 Reduction [3, 19]: <1.26 Log10 | Average CFU/mL [3, 20]: >3.0E+05 CFU/mL | Log10 Growth [3, 20]: >5.48 Log10 | Log10 Reduction [3, 20]: <2.26 Log10 | Average CFU/mL [3, 21]: >3.0E+06 CFU/mL | Log10 Growth [3, 21]: >6.48 Log10 | Log10 Reduction [3, 21]: <1.26 Log10 | Average CFU/mL [3, 22]: >3.0E+05 CFU/mL | Log10 Growth [3, 22]: >5.48 Log10 | Log10 Reduction [3, 22]: <2.26 Log10 | Average CFU/mL [4, 23]: >1.65E+05 CFU/mL | Log10 Growth [4, 23]: >5.22 Log10 | Log10 Reduction [4, 23]: <0.53 Log10 | Average CFU/mL [4, 24]: >1.65E+05 CFU/mL | Log10 Growth [4, 24]: >5.22 Log10 | Log10 Reduction [4, 24]: <0.53 Log10 | Average CFU/mL [4, 25]: >1.65E+05 CFU/mL | Log10 Growth [4, 25]: >5.22 Log10 | Log10 Reduction [4, 25]: <0.53 Log10 | Average CFU/mL [4, 26]: >1.65E+05 CFU/mL | Log10 Growth [4, 26]: >5.22 Log10 | Log10 Reduction [4, 26]: <0.53 Log10 | Average CFU/mL [4, 27]: >1.65E+05 CFU/mL | Log10 Growth [4, 27]: >5.22 Log10 | Log10 Reduction [4, 27]: <0.53 Log10 | Average CFU/mL [5, 23]: <140 CFU/mL | Log10 Growth [5, 23]: <2.15 Log10 | Log10 Reduction [5, 23]: >4.14 Log10 | Average CFU/mL [5, 24]: <140 CFU/mL | Log10 Growth [5, 24]: <2.15 Log10 | Log10 Reduction [5, 24]: >4.14 Log10 | Average CFU/mL [5, 25]: <140 CFU/mL | Log10 Growth [5, 25]: <2.15 Log10 | Log10 Reduction [5, 25]: >4.14 Log10 | Average CFU/mL [5, 26]: <140 CFU/mL | Log10 Growth [5, 26]: <2.15 Log10 | Log10 Reduction [5, 26]: >4.14 Log10 | Average CFU/mL [5, 27]: <140 CFU/mL | Log10 Growth [5, 27]: <2.15 Log10 | Log10 Reduction [5, 27]: >4.14 Log10 | Log reduction ([6]; Klebsiella pneumoniae ATCC 4352): 2.46 | Log reduction ([6]; Staphylococcus aureus ATCC 6538): >5.85 | Average CFU/mL [7, 28]: 7.50E+05 CFU/mL | Log10 Growth [7, 28]: 5.88 Log10 | Log10 Reduction [7, 28]: 0.00 Log10 | Average CFU/mL [7, 29]: 5.00E+05 CFU/mL | Log10 Growth [7, 29]: 5.70 Log10 | Log10 Reduction [7, 29]: 0.00 Log10 | Average CFU/mL [7, 30]: 8.50E+05 CFU/mL | Log10 Growth [7, 30]: 5.93 Log10 | Log10 Reduction [7, 30]: 0.00 Log10 | Average CFU/mL [7, 31]: 4.00E+05 CFU/mL | Log10 Growth [7, 31]: 5.60 Log10 | Log10 Reduction [7, 31]: 0.19 Log10 | Average CFU/mL [8, 32]: >3.30E + 05 CFU/mL | Log10 Growth [8, 32]: >5.52 Log10 | Average CFU/mL [8, 33]: 9.25E + 03 CFU/mL | Log10 Growth [8, 33]: 3.97 Log10 | Average CFU/mL [8, 34]: <140 CFU/mL | Log10 Growth [8, 34]: <2.15 Log10 | Average CFU/mL [9, 32]: 1.77E + 05 CFU/mL | Log10 Growth [9, 32]: 5.25 Log10 | Average CFU/mL [9, 33]: <140 CFU/mL | Log10 Growth [9, 33]: <2.15 Log10 | Average CFU/mL [9, 34]: <140 CFU/mL | Log10 Growth [9, 34]: <2.15 Log10 | Average CFU/mL [10, 32]: <140 CFU/mL | Log10 Growth [10, 32]: <2.15 Log10 | Average CFU/mL [10, 33]: <140 CFU/mL | Log10 Growth [10, 33]: <2.15 Log10 | Average CFU/mL [10, 34]: <140 CFU/mL | Log10 Growth [10, 34]: <2.15 Log10
